For six compounds, GI50 and TGI results are on record in PubChem BioAssay (NCI).

Test systems include A498 renal; ACHN renal; HS 578T breast; IGROV1 ovarian; OVCAR-3 ovarian; SK-MEL-2 melanoma; SNB-19 CNS; T-47D breast; TK-10 renal; UACC-257 melanoma.
What all share (experiment): NCI-60 cell line screen, 48 h

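Test compounds were applied to cells in 96-well plates for 48 hours at 5 doses. The concentration for 50% growth inhibition is given as GI50. At the TGI there is no net growth.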

With `Cc1cc2c(F)c(Oc3ncnc(Nc4ccc(N5C[C@@H](C)N[C@@H](C)C5)cc4)c3C#N)cc(F)c2[nH]1`, the GI50 was 0.0134 µM in the test with A498 renal; 2.05 µM with ACHN renal; 1.77 µM in the test on HS 578T breast; 2.48 µM with IGROV1 ovarian; 1.75 µM with OVCAR-3 ovarian; 2.2 µM in the test on SK-MEL-2 melanoma. Besides, the GI50 was 5.07 µM in the test with SNB-19 CNS, 1.97 µM with T-47D breast, 2.65 µM with TK-10 renal and 2.06 µM with UACC-257 melanoma. Also, the TGI with A498 renal was 0.384 µM; with ACHN renal, 4.21 µM; in the test on HS 578T breast, 5.4 µM; in the test with IGROV1 ovarian, 6.91 µM; in the test on OVCAR-3 ovarian, 3.46 µM; in the test with SK-MEL-2 melanoma, 4.67 µM. Moreover, the TGI in the test with SNB-19 CNS turned out to be 18.8 µM; with T-47D breast, 5.57 µM; in the test on TK-10 renal, 6.31 µM; in the test on UACC-257 melanoma it was 4.04 µM.
Consider `CN1C(=O)CCC(N2C(=O)c3cccc(NCCOCCOCCNC(=O)c4cc5c(o4)C(=O)c4ccccc4C5=O)c3C2=O)C1=O` (stereo not given), for which the GI50 with A498 renal is 1.71 µM; in the test with ACHN renal, 2.04 µM; with HS 578T breast, 2.7 µM; with IGROV1 ovarian, 1.8 µM; in the test on OVCAR-3 ovarian it was 1.53 µM; in the test with SK-MEL-2 melanoma, 2.2 µM. The GI50 in the test with SNB-19 CNS was 1.58 µM; with T-47D breast it was 2.88 µM; in the test on TK-10 renal it was 3.5 µM; with UACC-257 melanoma it was 1.59 µM. For the same compound, the TGI in the test on A498 renal worked out at 3.2 µM; in the test on ACHN renal, 5.17 µM; in the test on HS 578T breast, 7.46 µM; in the test on IGROV1 ovarian, 4.31 µM; in the test with OVCAR-3 ovarian it was 4 µM; with SK-MEL-2 melanoma, 6.49 µM. Besides, the TGI is 5.57 µM in the test on SNB-19 CNS, 10.3 µM in the test with T-47D breast, 7.55 µM in the test on TK-10 renal and 3.11 µM in the test on UACC-257 melanoma.
On to `O=C1C2CCN(CC2)C1CN1CCOCC1` (stereo not given), for which the TGI stood at 31.2 µM in the test on A498 renal; 4.18 µM with ACHN renal; 82.1 µM in the test on HS 578T breast; 38.4 µM in the test on IGROV1 ovarian; 4.18 µM in the test on OVCAR-3 ovarian; 32.5 µM in the test on SK-MEL-2 melanoma. Moreover, the TGI in the test with SNB-19 CNS stood at 32.6 µM; in the test on T-47D breast it was 3.93 µM; in the test on TK-10 renal it was 13.2 µM; in the test on UACC-257 melanoma, 10.2 µM.
Turning to `NC(=S)N/N=C/c1ccc(OC(=O)COc2cc(Cl)c(Cl)cc2Cl)cn1`, the GI50 was 14.2 µM in the test with A498 renal; 3.03 µM in the test on ACHN renal; 51 µM in the test with HS 578T breast; 7.65 µM in the test with IGROV1 ovarian; 3.39 µM with OVCAR-3 ovarian; 12.7 µM in the test with SK-MEL-2 melanoma. The GI50 is 5.87 µM in the test with SNB-19 CNS, 2.87 µM in the test on T-47D breast, 41.9 µM in the test on TK-10 renal and 11 µM in the test with UACC-257 melanoma. Also, the TGI was over 100 µM in the test with A498 renal; over 100 µM in the test with ACHN renal; over 100 µM in the test with HS 578T breast; over 100 µM in the test on IGROV1 ovarian; 58.2 µM in the test with OVCAR-3 ovarian; over 100 µM with SK-MEL-2 melanoma. Moreover, the TGI is over 100 µM in the test with SNB-19 CNS, over 100 µM with T-47D breast, over 100 µM in the test with TK-10 renal and 51.5 µM in the test with UACC-257 melanoma.
Regarding `CCC(CC)n1cnc2c(-c3cnc(N)cn3)nc(N3CC4CCC(C3)O4)nc21`, the GI50 was 0.0749 µM in the test with A498 renal; 0.324 µM with ACHN renal; 0.209 µM with HS 578T breast; 0.0929 µM in the test with IGROV1 ovarian; 0.5 µM with OVCAR-3 ovarian; 0.391 µM with SK-MEL-2 melanoma. Besides, the GI50 was 1.37 µM in the test with SNB-19 CNS, 0.0233 µM with T-47D breast, 0.168 µM in the test with TK-10 renal and 0.289 µM in the test with UACC-257 melanoma. For the same compound, the TGI with A498 renal was 0.466 µM; with ACHN renal it was over 100 µM; with HS 578T breast it was 1.61 µM; in the test with IGROV1 ovarian, 1.13 µM; in the test on OVCAR-3 ovarian, over 100 µM; with SK-MEL-2 melanoma, 3.25 µM. For the same compound, the TGI in the test with SNB-19 CNS was over 100 µM; in the test on T-47D breast, 0.217 µM; with TK-10 renal it was 5.15 µM; in the test on UACC-257 melanoma, 4.07 µM.
Regarding `COc1cc(-c2nn(-c3cccc(NC(=O)Nc4ccc(Cl)c(C(F)(F)F)c4)c3)cc2-c2ccncc2)ccc1Cl`, the GI50 with A498 renal is 0.837 µM; in the test with ACHN renal it was 1.1 µM; with HS 578T breast it was 1.32 µM; in the test with IGROV1 ovarian it was 1.2 µM; in the test with OVCAR-3 ovarian it was 0.889 µM; with SK-MEL-2 melanoma, 1.01 µM. The GI50 in the test with SNB-19 CNS is 1.24 µM; in the test with T-47D breast, 1.23 µM; with TK-10 renal, 1.51 µM; with UACC-257 melanoma, 1.21 µM. Further, the TGI in the test on A498 renal came to 6.97 µM; with ACHN renal, 15.6 µM; in the test with HS 578T breast, 18.3 µM; with IGROV1 ovarian, 4.22 µM; in the test on OVCAR-3 ovarian, 2.44 µM; in the test on SK-MEL-2 melanoma it was 2.58 µM. In addition, the TGI was 9.24 µM in the test on SNB-19 CNS, over 32.5 µM in the test on T-47D breast, 13.5 µM with TK-10 renal and 6.03 µM with UACC-257 melanoma.
